Assay results: US20240342235A1, “COMPOSITION FOR TREATING INFLAMMATORY BOWEL DISEASE, COMPRISING COMBINED EXTRACT OF ISATIDIS FOLIUM AND JUGLANS MANDSHURICA” (MTHERA PHARMA CO., LTD., priority 2021, published 2024)

Tests used:
Type in all cases: in vivo, C57BL/6N male mice
[1] = system: inflammatory bowel disease-induced mouse model (2.5% DSS); test: Disease activity index (DAI) evaluation II, combined vs single extracts (Example 5); settings: 100 mg/kg oral, 2.5% DSS for 5 days, 5 days after administration
Protocol: In order to evaluate whether the combined extract has a synergistic effect compared to that of individual use of an extract of […] folium and an extract of Juglans mandshurica fruits, 6-week-old C57BL/6N male mice were purchased and pre-bred for one week, and then they were randomly divided into a total of 6 groups of 7 mice per group, and an experiment was conducted as shown in Table 3 below. [table] 2.5% dextran sulfate sodium (DSS) diluted in sterile water was administered in drinking water for a total of 5 days, and 5-aminosalicylic acid (5-ASA), which is a therapeutic agent for inflammatory bowel disease, an extract of […] folium alone, an extract of Juglans mandshurica fruits alone, or the combined extract of the present invention was orally administered for a total of 7 days from 2 days prior to the day of administration with DSS. In addition, the disease activity index was measured in the same manner as the method used in Table 2 above, and the results 5 days after administration are shown in FIG. 5.

[2] = system: inflammatory bowel disease animal model (2.5% DSS); test: Length of large intestine in DSS-treated mice (Example 2); settings: 100 mg/kg oral, last day of administration, negative control 5.44±0.12 cm, normal 7.48±0.30 cm
Protocol: 6-week-old C57BL/6N male mice were purchased and pre-bred for one week, and then they were randomly divided into a total of 5 groups of 8 mice per group, and an experiment was conducted as shown in Table 1 below. 2.5% dextran sulfate sodium (DSS) diluted in sterile water was administered in drinking water for a total of 8 days, and 5-aminosalicylic acid (5-ASA), which is a therapeutic agent for inflammatory bowel disease, or the combined extract of the present invention was orally administered for a total of 10 days from 2 days prior to the day of administration with DSS. It is known that there is a sufficient correlation between the shortened large intestine and histological changes, and the length of the large intestine is commonly used as a morphological parameter of the degree of inflammation. Therefore, in order to evaluate the length of the large intestine of the mouse according to the administration of the combined extract of the present invention, the mouse of Example 1 was sacrificed on the last day of each administration, and then the length of the large intestine was measured, and the average length is shown in FIG. 2.

[3] = system: inflammatory bowel disease animal model (2.5% DSS); test: Body weight change in DSS-treated mice (Example 1); settings: 100 mg/kg oral, 2.5% DSS in drinking water, 7 days; body weight before DSS = 100%; negative control 89.31±2.75%, normal 105.64±0.54%
Protocol: 6-week-old C57BL/6N male mice were purchased and pre-bred for one week, and then they were randomly divided into a total of 5 groups of 8 mice per group, and an experiment was conducted as shown in Table 1 below. 2.5% dextran sulfate sodium (DSS) diluted in sterile water was administered in drinking water for a total of 8 days, and 5-aminosalicylic acid (5-ASA), which is a therapeutic agent for inflammatory bowel disease, or the combined extract of the present invention was orally administered for a total of 10 days from 2 days prior to the day of administration with DSS. [table] Body weight loss is a representative symptom of inflammatory bowel disease (Scientific Reports volume 10, Article number: 3829 (2020)). The body weight of the mouse was measured once a day at the same time (10 am) using an electronic scale. The rate of change in body weight of each group was obtained by summing the body weight of 8 mice per group and then dividing by 8. The average body weight immediately before the start of administration of 2.5% DSS in drinking water was set as 100%, and the average body weight of each group was calculated every day to measure the rate of change in body weight. Significance was verified by performing a Student's T test for each group between the negative control group to which 2.5% DSS was administered in drinking water and the experimental group.

[4] = system: inflammatory bowel disease animal model (2.5% DSS); test: Weight and length of spleen (spleen ratio) in DSS-treated mice (Example 3); settings: 100 mg/kg oral, last day of administration
Protocol: 6-week-old C57BL/6N male mice were purchased and pre-bred for one week, and then they were randomly divided into a total of 5 groups of 8 mice per group, and an experiment was conducted as shown in Table 1 below.
2.5% dextran sulfate sodium (DSS) diluted in sterile water was administered in drinking water for a total of 8 days, and 5-aminosalicylic acid (5-ASA), which is a therapeutic agent for inflammatory bowel disease, or the combined extract of the present invention was orally administered for a total of 10 days from 2 days prior to the day of administration with DSS.
A representative symptom that can occur in relation to inflammatory bowel disease includes splenitis. As such, when the spleen becomes inflamed, the size of the spleen is increased by its nature (Nutrients 2019, 11 (11), 2776), and in fact, it is known that the spleen becomes enlarged in the model of IBD induced after DSS treatment (Biol. Pharm. Bull. 43, 450-457 (2020)). Therefore, in order to evaluate the level of inflammation in the spleen of mice according to the administration of the combined extract of the present invention, the mouse of Example 1 was sacrificed on the last day of each administration, and then the weight and length of the spleen of each group compared to those of the negative control group were measured, and the spleen ratio is shown.

[5] = system: myeloperoxidase (MPO); test: Myeloperoxidase (MPO) activity in large intestine tissue, Mouse MPO ELISA kit (Example 6); settings: 100 mg/kg oral for 7 days, 2.5% DSS for 5 days
Protocol: MPO is an enzyme mainly found in neutrophils, and the activity of MPO in tissues is an indicator of neutrophil infiltration, so it is an indicator of inflammatory response and correlates with the level of intestinal damage caused by inflammatory colitis. Therefore, in order to measure the activity of MPO according to the administration of the combined extract of the present invention, an experiment was conducted as shown in Table 3 of Example 5 above.
2.5% dextran sulfate sodium (DSS) diluted in sterile water was administered in drinking water for a total of 5 days, and 5-aminosalicylic acid (5-ASA), which is a therapeutic agent for inflammatory bowel disease, an extract of Isatidis folium alone, an extract of Juglans mandshurica fruits alone, or the combined extract of the present invention was orally administered for a total of 7 days from 2 days prior to the day of administration with DSS. In order to measure the activity of MPO, the Mouse MPO ELISA kit (HK210-02, Hycult biotechnology) was used. […] The homogenized sample was centrifuged at 1500×g for 15 minutes to obtain a supernatant, and then the activity of MPO was measured using the supernatant.

Nc1ccc(O)c(C(=O)O)c1 [5-ASA, 5-aminosalicylic acid]
disease activity index compared to negative control group [1]: decreased | length of the large intestine [2]: 5.28±0.08 cm | rate of change in body weight [3]: 91.38±2.01% | weight and length of the spleen compared to negative control group [4]: decreased | decrease of the activity of MPO compared to negative control group [5]: 9.6%
